{"source": "patent US10940126B2", "about": "“Inhibition of IL-8 in the treatment of pain and/or bone loss” (priority 2015, dated 2021)", "key": {"[1]": {"settings": "cited from earlier work"}, "[2]": {"settings": "in vivo; cited from earlier work"}, "neutrophil recruitment": {"system": "neutrophil recruitment", "settings": "cited from earlier work"}, "CXCR2": {"target": "T1, CXCR2 (Homo sapiens, UniProt P25025)", "T1 sequence (P25025 1-360)": "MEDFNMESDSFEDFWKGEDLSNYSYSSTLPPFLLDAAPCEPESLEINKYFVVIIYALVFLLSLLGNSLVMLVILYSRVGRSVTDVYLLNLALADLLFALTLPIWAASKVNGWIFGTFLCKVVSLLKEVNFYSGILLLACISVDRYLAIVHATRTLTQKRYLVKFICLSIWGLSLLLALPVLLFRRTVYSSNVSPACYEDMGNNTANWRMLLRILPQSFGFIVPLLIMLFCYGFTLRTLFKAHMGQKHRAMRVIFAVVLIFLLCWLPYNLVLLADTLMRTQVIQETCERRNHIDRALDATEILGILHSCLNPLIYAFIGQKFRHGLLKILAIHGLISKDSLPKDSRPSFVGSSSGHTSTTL", "settings": "relative to SB225002; cited from earlier work"}, "mice [3]": {"system": "mice", "assay": "Mechanical hypersensitivity: von Frey filaments, 50% withdrawal threshold of hind paws", "type": "in vivo"}, "osteoclasts": {"system": "osteoclasts", "assay": "Osteoclast activation under IL-8 receptor blockade", "settings": "blockade of IL-8 receptors"}, "mice [4]": {"system": "mice", "assay": "Cold sensitivity, acetone drop on hind paw", "type": "in vivo", "settings": "mice i.v. monoclonal ACPA D10 and B2; reparixin 30 mg/kg/day s.c. six days; day 19", "description": "To assess sensitivity to cold, the mice were placed in the same testing device as used for detection of mechanical hypersensitivity. After habituation, a 1 ml syringe was used to gently apply a drop of acetone to the plantar surface of the hind paw and the duration of the nocifensive behavior (lifting, shaking, biting, and licking the paw) was recorded. The test was repeated three times on each paw and the average was calculated."}, "mice [5]": {"system": "mice", "assay": "Heat sensitivity, modified Hargreaves box", "type": "in vivo", "settings": "mice i.v. monoclonal ACPA D10 and B2; reparixin 30 mg/kg/day s.c. six days; tested day 26", "source_text": "Heat sensitivity was examined using a modified Hargreaves box ([…]. et al., 1997). Mice were placed individually in Plexiglas cubicles on the glass surface and allowed to habituate. A radiant heat stimulus was then applied from below to a hind paw until a motion sensor detects a brisk withdrawal and stops the stimulus. Elapsed time is automatically recorded with a cutoff at 20 seconds. Three measurements from each paw were averaged and presented as latency (in seconds) for the withdrawal."}, "ankle joints and tibia": {"system": "ankle joints and tibia", "assay": "Joint histology and micro-CT (synovitis, bone erosion, cartilage)", "type": "in vivo", "settings": "mice"}, "[6]": {"system": "Cxcl1, Cxcl2 and other inflammatory factor mRNA", "assay": "Quantitative real-time PCR of ankle joint and plantar paw skin mRNA", "type": "in vivo, mice", "settings": "hD10/B02 mAb 1 mg each; zoledronate 100 ug/kg", "description": "Ankle joints and plantar paw skin of the hind legs were processed for gene expression analysis. Muscle and tendons were removed from ankle joints, which were then snap frozen and pulverized. Tissues were sonicated in TRIzol (Invitrogen) and RNA was extracted according to manufacturer's protocol. After complementary DNA (cDNA) synthesis, quantitative real-time PCR (Applied Biosystems) was performed using hydrolysis probes to determine the relative messenger RNA (mRNA) levels. Primers for chemokines Ccl2 (MCP1, Mm00441242_m1), Cxcl1 (Mm04207460_m1), Cxcl2 (Mm00436450_m1), Cxcl5 (Mm00436451_g1), inflammatory cytokines Tnf (Mm00443258_m1), Il1b (Mm00434228_m1), Il6 (Mm00446190_m1), mast cell proteases Mcpt4 (Mcp4, Mm00487636-g1), Tpsb2 (Mcp6, Mm01301240-g1), pro-inflammatory enzyme Cox2 (Mm00478374_m1), matrix metallo proteases Mmp2 (Mm00439498_m1), Mmp9 (Mm00442991_m1), Mmp13 (Mm00439491-m1), and reference gene Hprt1 (Mm01545399_m1) (all from Applied Biosystems) were used to determine threshold cycle values to calculate the number of cell equivalents in each sample with the standard curve method. Data was normalized to Hprt1 values and expressed as relative expression units (REU)."}, "RA synovial fibroblasts": {"system": "RA synovial fibroblasts", "settings": "cited from earlier work"}, "[7]": {"settings": "mice injected with hG09 or hC03, thresholds at baseline, 1.5, 3 and 6 hours"}}, "note": "“Also recorded” adds a separate entry of the source.", "data": [{"molecule": "C[C@H](CO)Nc1nc(SCc2cccc(F)c2F)nc2[nH]c(=O)sc12", "note": "[AZD-8309, 5-[[(2,3-Difluorophenyl)methyl]thio]-7-[[(1R)-2-hydroxy-1-methylethyl]amino]-thiazolo[4,5-d]pyrimidin-2(3H)-one]", "values": [{"measurement": "Tolerability in clinical trials", "setting": "[1]; human, in vivo", "result": "well tolerated"}]}, {"molecule": "C[C@@H](C(N)=O)c1ccc(OS(=O)(=O)C(F)(F)F)cc1", "note": "[DF2162, 4-[(1R)-2-amino-1-methyl-2-oxoethyl]phenyl trifluoromethane sulfonate]", "values": [{"measurement": "Results in pre-clinical studies of adjuvant-induced polyarthritis and bleomycin-induced pulmonary inflammation and fibrosis", "setting": "[2]", "result": "promising results"}, {"measurement": "CXCL1 and carrageenan-induced pain-like behavior", "setting": "neutrophil recruitment; mice", "result": "blocked"}, {"measurement": "Neutrophil recruitment induced by injection of CXCL1 or carrageenan to the paw", "setting": "neutrophil recruitment; mice", "result": "inhibits neutrophil recruitment"}, {"measurement": "Nociceptor sensitization", "setting": "neutrophil recruitment; mouse, in vivo", "result": "does not directly affect nociceptor sensitization"}]}, {"molecule": "O=C(Nc1ccc(Cl)c(S(=O)(=O)N2CCNCC2)c1O)Nc1cccc(F)c1Cl", "note": "[SB656933, 1-(2-chloro-3-fluorophenyl)-3-(4-chloro-2-hydroxy-3-piperazin-1-ylsulfonylphenyl)urea]", "values": [{"measurement": "Tolerability in clinical trials", "setting": "[1]; human, in vivo", "result": "well tolerated at all doses"}, {"measurement": "Potency as CXCR2 antagonist", "setting": "CXCR2", "result": "same potency as SB225002"}]}, {"molecule": "CC[C@@H](Nc1c(Nc2cccc(C(=O)N(C)C)c2O)c(=O)c1=O)c1ccc(C)o1", "note": "[SCH527123, 2-hydroxy-N,N-dimethyl-3-[[2-[[1(R)-(5-methyl-2-furanyl)propyl]amino]-3,4-dioxo-1-cyclobuten-1-yl]amino]benzamide]", "values": [{"measurement": "Adverse events in clinical trials", "setting": "[1]; human, in vivo", "result": "no treatment-induced adverse events were observed"}, {"measurement": "Severe asthma", "setting": "[1]; oral, clinical trials", "result": "modest improvement"}, {"measurement": "Sputum neutrophils", "setting": "[1]; oral, clinical trials", "result": "reduction in sputum neutrophils"}]}, {"molecule": "O=C(O)Cc1ccccc1Nc1c(Cl)cccc1Cl", "note": "[diclofenac]", "values": [{"measurement": "Pain measured as withdrawal threshold, effect of painkiller", "setting": "mice [3]; mice injected with hC03 and hB09G09, diclofenac 30 mg/kg, observed during 6 hours", "result": "apparent lack of effect"}]}, {"molecule": "NCC1(CC(=O)O)CCCCC1", "note": "[gabapentin]", "values": [{"measurement": "Pain measured as withdrawal threshold, effect of painkiller", "setting": "mice [3]; [7]", "result": "apparent lack of effect; also recorded: no detectable effect on pain"}]}, {"molecule": "COc1ccc2cc([C@H](C)C(=O)O)ccc2c1", "note": "[naproxen]", "values": [{"measurement": "Pain measured as withdrawal threshold, effect of painkiller", "setting": "mice [3]; [7]", "result": "apparent lack of effect; also recorded: no detectable effect on pain"}]}, {"molecule": "CC(C)Cc1ccc([C@@H](C)C(=O)NS(C)(=O)=O)cc1", "note": "[reparixin, (2R)-2-[4-(2-methylpropyl)phenyl]-N-methylsulfonylpropanamide]", "values": [{"measurement": "Activation of osteoclasts", "setting": "osteoclasts", "result": "blocks the activation of osteoclasts"}, {"measurement": "ACPA-induced sensitivity to cold, effect of treatment", "setting": "mice [4]", "result": "attenuated sensitivity to cold"}, {"measurement": "ACPA-induced heat hypersensitivity, effect of treatment", "setting": "mice [5]", "result": "partially reversed"}, {"measurement": "ACPA-induced mechanical hypersensitivity, effect of treatment", "setting": "mice [3]; mice i.v. monoclonal ACPA D10 and B2 (1 mg each), reparixin 30 mg/kg/day s.c. six consecutive days starting day 6, vs saline controls", "result": "partially reversed"}, {"measurement": "Tactile thresholds in naive mice", "setting": "mice [3]; naive mice not injected with ACPAs, treatment for six days", "result": "did not affect tactile thresholds"}, {"measurement": "Pain measured as withdrawal threshold, effect of treatment", "setting": "mice [3]; pain induced by human monoclonal ACPA hC03 (hG09 control), reparixin 30 mg/kg once a day starting day 1", "result": "attenuating effects"}, {"measurement": "Bone destruction induced by injected ACPA", "setting": "ankle joints and tibia", "result": "completely reversed"}]}, {"molecule": "O=P(O)(O)C(O)(Cn1ccnc1)P(=O)(O)O", "note": "[zoledronate]", "values": [{"measurement": "ACPA-induced increase of CXCL1 mRNA in the ankle joint", "setting": "[6]", "result": "efficiently prevented"}, {"measurement": "ACPA induced pain measured as withdrawal threshold, effect of osteoclast inhibitor", "setting": "mice [3]; hD10/hB02 mAb 1 mg each, zoledronate for 10 days", "result": "dose-dependent effect; also recorded: dose dependent effect"}]}, {"molecule": "epigallocatechin-3-gallate [EGCG]", "values": [{"measurement": "Induction of IL-8 production", "setting": "RA synovial fibroblasts", "result": "inhibited the induction of IL-8 production"}]}]}
